Experimental data taken from US12570613B2, “Imidazoquinoline or benzoindazolone compound and intermediate for preparing same” (LMITO THERAPEUTICS INC., priority 2020, dated 2026).

Target: NQO1 protein (Homo sapiens, UniProt P15559)
Assay: In vitro NQO1 enzyme activity assay (cytochrome C reduction, absorbance at 550 nm)
Format: biochemical
Conditions: NQO1 2 ng
Experimental: In order to evaluate the activity of the synthesized compound in NQO1, the experiments were performed as follows:
The synthesized compound was dissolved in DMSO to make a 10 mM stock solution, which was further diluted with DMSO to 250 μM so as to prepare a working solution. For experimental groups, the working solution of the compound was added to an enzyme reaction solution in which 50 μL of 1.54 mM Cytochrome C solution was added to 900 μL of 50 mM Tris-HCl (pH7.5) containing 0.14% BSA. For negative control groups, DMSO not containing the compound of the invention was added to the enzyme reaction solution as above. For each experimental and control group, 20 μL of 100 ng/mL NQO1 protein was added, and then 10 μL of 20 mM NADH was added to bring up the total volume to 1 mL. The change of absorbance was measured at 550 nm for 10 minutes using 1 mL cuvette. The kinetics of reaction was measured by the increase of absorbance as the cytochrome C was reduced at 550 nm over 10 minutes. The activity of NQO1 was measured by the amount of cytochrome C that is being reduced (nmol cytochrome C that was reduced/min/ug NQO1 protein). • Absorption coefficient of Cytochrome C: 21.1 (μmol/mL)^−1cm^−1 • BSA: Bovine Serum Albumin • […]: Tris(hydroxymethyl)aminomethane hydrochloride (buffer solution) • Equipment=Cary 100 UV-Vis Spectrophotometer • The results are shown in Tables 1 to 8.

NQO1 protein, sequence (P15559 whole entry, species assumed): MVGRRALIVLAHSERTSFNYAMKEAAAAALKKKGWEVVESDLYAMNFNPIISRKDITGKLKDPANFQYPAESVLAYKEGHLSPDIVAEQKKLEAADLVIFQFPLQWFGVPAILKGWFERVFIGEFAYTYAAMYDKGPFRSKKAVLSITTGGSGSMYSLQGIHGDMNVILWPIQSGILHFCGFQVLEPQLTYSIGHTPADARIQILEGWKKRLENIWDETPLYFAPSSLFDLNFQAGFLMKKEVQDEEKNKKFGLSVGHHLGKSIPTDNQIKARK

Cc1c2c(nn1S(=O)(=O)c1ccc(F)cc1)-c1ccccc1C(=O)C2=O [Compound 45, 3-Methyl-2-(4-Fluorophenylsulfonyl)-2H-benzo[g]indazol-4,5-dione]
NQO1 activity assay Cytochrome C reduced/min/μg NQO1 protein (50 nM Compound (Table 5)): 2092 nmol cytochrome C that was reduced/min/ug NQO1 protein

Cc1c2c(nn1C)-c1ccccc1C(=O)C2=O [Compound 23, 2,3-Dimethyl-2H-benzo[g]indazol-4,5-dione]
NQO1 activity assay Cytochrome C reduced/min/μg NQO1 protein (10 nM Compound (Table 1)): 477 nmol cytochrome C that was reduced/min/ug NQO1 protein

Cc1nn(-c2ccc(C(=O)O)cc2)c2c1C(=O)C(=O)c1ccccc1-2 [Compound 37, 4-(3-Methyl-4,5-dioxo-4,5-dihydro-1H-benzo[g]indazol-1-yl)benzoic acid]
NQO1 activity assay Cytochrome C reduced/min/μg NQO1 protein (50 nM Compound (Table 2)): 1034 nmol cytochrome C that was reduced/min/ug NQO1 protein

Cc1ccc(CCn2nc3c(c2C)C(=O)C(=O)c2ccccc2-3)cc1 [Compound 69, 3-Methyl-2-(4-methylphenethyl)-2H-benzo[g]indazol-4,5-dione]
NQO1 activity assay Cytochrome C reduced/min/μg NQO1 protein (50 nM Compound (Table 8)): 2460 nmol cytochrome C that was reduced/min/ug NQO1 protein

Cc1nn(-c2ccc(Cl)cc2Cl)c2c1C(=O)C(=O)c1ccccc1-2 [Compound 28, 1-(2,4-Dichlorophenyl)-3-methyl-1H-benzo[g]indazol-4,5-dione]
NQO1 activity assay Cytochrome C reduced/min/μg NQO1 protein (10 nM Compound (Table 1)): 745 nmol cytochrome C that was reduced/min/ug NQO1 protein

COC(=O)c1ccc(S(=O)(=O)n2nc3c(c2C)C(=O)C(=O)c2ccccc2-3)cc1 [Compound 52, Methyl 4-(3-methyl-4,5-dioxo-4,5-dihydro-2H-benzo[g]indazol-2-ylsulfonyl)benzoate]
NQO1 activity assay Cytochrome C reduced/min/μg NQO1 protein (50 nM Compound (Table 7)): 2179 nmol cytochrome C that was reduced/min/ug NQO1 protein

Cc1c2c(nn1S(=O)(=O)C1CCCC1)-c1ccccc1C(=O)C2=O [Compound 54, 2-(Cyclopentylsulfonyl)-3-methyl-2H-benzo[g]indazol-4,5-dione]
NQO1 activity assay Cytochrome C reduced/min/μg NQO1 protein (50 nM Compound (Table 7)): 1295 nmol cytochrome C that was reduced/min/ug NQO1 protein

Cc1nn(-c2cc(Cl)cc(Cl)c2)c2c1C(=O)C(=O)c1ccccc1-2 [Compound 36, 1-(3,5-Dichlorophenyl)-3-methyl-1H-benzo[g]indazol-4,5-dione]
NQO1 activity assay Cytochrome C reduced/min/μg NQO1 protein (50 nM Compound (Table 2)): 1873 nmol cytochrome C that was reduced/min/ug NQO1 protein

Cc1c2c(nn1S(=O)(=O)c1cccnc1)-c1ccccc1C(=O)C2=O [Compound 48, 3-Methyl-2-(pyridin-3-ylsulfonyl)-2H-benzo[g]indazol-4,5-dione]
NQO1 activity assay Cytochrome C reduced/min/μg NQO1 protein (50 nM Compound (Table 5)): 1749 nmol cytochrome C that was reduced/min/ug NQO1 protein

Cc1c2c(nn1S(=O)(=O)c1ccc(F)c(F)c1)-c1ccccc1C(=O)C2=O [Compound 58, 2-(3,4-Difluorophenylsulfonyl)-3-methyl-2H-benzo[g]indazol-4,5-dione]
NQO1 activity assay Cytochrome C reduced/min/μg NQO1 protein (50 nM Compound (Table 8)): 1913 nmol cytochrome C that was reduced/min/ug NQO1 protein

O=C1C(=O)c2ncc(-c3ccc(C(F)(F)F)cc3)n2-c2ccccc21 [Compound 4, 1-(4-(Trifluoromethyl)phenyl)imidazo[1,2-a]quinoline-4,5-dione]
NQO1 activity assay Cytochrome C reduced/min/μg NQO1 protein (10 nM Compound (Table 1)): 170 nmol cytochrome C that was reduced/min/ug NQO1 protein

O=C1C(=O)c2ncc(-c3ccc(F)cc3)n2-c2ccccc21 [Compound 2, 1-(4-Fluorophenyl)imidazo[1,2-a]quinolin-4,5-dione]
NQO1 activity assay Cytochrome C reduced/min/μg NQO1 protein (10 nM Compound (Table 1)): 455 nmol cytochrome C that was reduced/min/ug NQO1 protein

CC(C)c1cnc2n1-c1ccccc1C(=O)C2=O [Compound 3, 1-Isopropylimidazo[1,2-a]quinolin-4,5-dione]
NQO1 activity assay Cytochrome C reduced/min/μg NQO1 protein (10 nM Compound (Table 1)): 755 nmol cytochrome C that was reduced/min/ug NQO1 protein

Cc1c2c(nn1S(=O)(=O)c1ccc(Cl)cc1)-c1ccccc1C(=O)C2=O [Compound 49, 2-(4-Chlorophenylsulfonyl)-3-methyl-2H-benzo[g]indazol-4,5-dione]
NQO1 activity assay Cytochrome C reduced/min/μg NQO1 protein (50 nM Compound (Table 6)): 2171 nmol cytochrome C that was reduced/min/ug NQO1 protein

O=C1C(=O)c2c(CCc3ccccc3)nn(-c3ccccc3)c2-c2ccccc21 [Compound 12, 3-Phenethyl-1-phenyl-1H-benzo[g]indazol-4,5-dione]
NQO1 activity assay Cytochrome C reduced/min/μg NQO1 protein (10 nM Compound (Table 1)): 225 nmol cytochrome C that was reduced/min/ug NQO1 protein

Cc1nn(-c2ccc(F)cc2)c2c1C(=O)C(=O)c1ccccc1-2 [Compound 25, 1-(4-Fluorophenyl)-3-methyl-1H-benzo[g]indazol-4,5-dione]
NQO1 activity assay Cytochrome C reduced/min/μg NQO1 protein (10 nM Compound (Table 1)): 463 nmol cytochrome C that was reduced/min/ug NQO1 protein

Cc1c2c(nn1S(=O)(=O)c1cccc3cccnc13)-c1ccccc1C(=O)C2=O [Compound 60, 3-Methyl-2-(quinolin-8-ylsulfonyl)-2H-benzo[g]indazol-4,5-dione]
NQO1 activity assay Cytochrome C reduced/min/μg NQO1 protein (50 nM Compound (Table 8)): 2692 nmol cytochrome C that was reduced/min/ug NQO1 protein

Cc1nn(-c2cc(F)cc(F)c2)c2c1C(=O)C(=O)c1ccccc1-2 [Compound 27, 1-(3,5-Difluorophenyl)-3-methyl-1H-benzo[g]indazol-4,5-dione]
NQO1 activity assay Cytochrome C reduced/min/μg NQO1 protein (10 nM Compound (Table 1)): 415 nmol cytochrome C that was reduced/min/ug NQO1 protein

Cc1ccc(-n2nc(C)c3c2-c2ccccc2C(=O)C3=O)cc1 [Compound 29, 3-Methyl-1-p-tolyl-1H-benzo[g]indazol-4,5-dione]
NQO1 activity assay Cytochrome C reduced/min/μg NQO1 protein (10 nM Compound (Table 1)): 668 nmol cytochrome C that was reduced/min/ug NQO1 protein

Cc1c2c(nn1-c1ccncc1)-c1ccccc1C(=O)C2=O [Compound 42, 3-Methyl-2-(pyridin-4-yl)-2H-benzo[g]indazol-4,5-dione]
NQO1 activity assay Cytochrome C reduced/min/μg NQO1 protein (50 nM Compound (Table 3)): 3212 nmol cytochrome C that was reduced/min/ug NQO1 protein

Cc1nn(-c2ccccc2)c2c1C(=O)C(=O)c1ccccc1-2 [Compound 9, 3-Methyl-1-phenyl-1H-benzo[g]indazol-4,5-dione]
NQO1 activity assay Cytochrome C reduced/min/μg NQO1 protein (10 nM Compound (Table 1)): 932 nmol cytochrome C that was reduced/min/ug NQO1 protein
NQO1 activity assay Cytochrome C reduced/min/μg NQO1 protein (50 nM Compound (Table 2)): 2093 nmol cytochrome C that was reduced/min/ug NQO1 protein
NQO1 activity assay Cytochrome C reduced/min/μg NQO1 protein (50 nM Compound (Table 3)): 3089 nmol cytochrome C that was reduced/min/ug NQO1 protein
NQO1 activity assay Cytochrome C reduced/min/μg NQO1 protein (50 nM Compound (Table 4)): 3864 nmol cytochrome C that was reduced/min/ug NQO1 protein
NQO1 activity assay Cytochrome C reduced/min/μg NQO1 protein (50 nM Compound (Table 5)): 3091 nmol cytochrome C that was reduced/min/ug NQO1 protein
NQO1 activity assay Cytochrome C reduced/min/μg NQO1 protein (50 nM Compound (Table 6)): 2885 nmol cytochrome C that was reduced/min/ug NQO1 protein
NQO1 activity assay Cytochrome C reduced/min/μg NQO1 protein (50 nM Compound (Table 7)): 2892 nmol cytochrome C that was reduced/min/ug NQO1 protein
NQO1 activity assay Cytochrome C reduced/min/μg NQO1 protein (50 nM Compound (Table 8)): 2709 nmol cytochrome C that was reduced/min/ug NQO1 protein

CCOC(=O)c1cn2c(n1)C(=O)C(=O)c1ccccc1-2 [Compound 5, Ethyl 4,5-dioxo-4,5-dihydroimidazo[1,2-a]quinolin-2-carboxylate]
NQO1 activity assay Cytochrome C reduced/min/μg NQO1 protein (10 nM Compound (Table 1)): 816 nmol cytochrome C that was reduced/min/ug NQO1 protein
